Converted amounts (≈) assume the structure as drawn. Read-outs that look alike come from different tables or passages of the source. Where only a bound is given, the exact number is not on record here.

Holding throughout (format): cell-based, E. coli
One assay concerns RW583. The assay is described as follows: Antibiotic susceptibility of the blr::TnphoA insertion mutant compared with the parent. Conditions: for effect of the insertion on susceptibility: transconjugant RW583 (blr::TnphoA) versus parental strain. The source says:
Donor E. coli K 12 strain S17-1 λpir (Tp^rSm^rrecA, thi, pro, hsdR^−M^+RP4;2-Tc:Mu:KmTn7,λpir; George and Levy. 1983. J Bacteriol 1983 Aug; 155 (2): 531-48) containing a conjugatable transposon-delivery plasmid pUT/Km (able to replicate only in the donor) which bore mini-Tn5phoA (de Lorenzo, V. & Timmis, K. N. Meth. Enzymol. 235, 386-404 (1994)) was mated with recipient ASS111rif and plated on kanamycin/rifamycin. Transconjugant RW583 had both PhoA activity and a 2-4 fold enhanced susceptibility to a wide spectrum of antibiotics […] including cephalosporins and imipenem (Table 1) as well as cycloserine and bacitracin, while susceptibility to tetracycline, chloramphenicol, nalidixic acid, norfloxacin, gentamicin, fosfomycin or valinomycin was not affected. The insertion was transduced (Provence, D. L. & Curtiss, R. I. in Methods for General and Molecular Bacteriology (ed. Gerhardt, P., Murry, R. G. E., Wood, W. A. & Kreig, N. R.) 317-347 (American Society for Microbiology, Washington D.C. 1994)) by bacteriophage P1 into other E. coli K12 strains, where it had the same effect on susceptibility (Table 1).
The cloned 358 base pairs region restored the wild type phenotype to the hypersusceptible strain bearing blr::TnphoA, regardless of orientation with respect to the lac promoter (Table 1, pRW23C vs pRW23D). The HindIII/PstI fragment of pACYC 184 (carrying the tet promoter and part of the tet gent) was replaced by the HindIII/PstI fragment from pRW23D. […] Therefore the 358 base pairs region appeared to contain all the information needed for complementation.

Another assay concerns WY100. The assay is described as follows: E-test susceptibility on LB agar, strain WY100. Details: unit not given here.
Another assay concerns AW1045. Briefly: E-test susceptibility on LB agar, strain AW1045. Set-up: unit not given here.
The test system of a further assay is WY100 blr::TnphoA. The assay is described as follows: E-test susceptibility on LB agar, strain WY100 blr::TnphoA. Details: unit not given here.
A further assay deals with AW1045 blr::TnphoA. The assay is described as follows: E-test susceptibility on LB agar, strain AW1045 blr::TnphoA. Set-up: unit not given here.
Assay [1] concerns ASS111rif blr::TnphoA (=RW583). The assay is described as follows: E-test susceptibility on LB agar, strain RW583 without or with plasmids. Set-up: unit not given here.
Another assay deals with S26 blr::TnphoA. The assay is described as follows: MIC for ampicillin, non-suppressor S26 host, blr::TnphoA.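 Note: MIC in µg per mL.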
The subject of another assay is S26 blr^+. Briefly: MIC for ampicillin, non-suppressor S26 host, blr^+.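 Note: MIC in µg per mL.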 Conditions: plasmid None.
The test system of a further assay is S26su^+ blr::TnphoA. Briefly: MIC for ampicillin, leuX amber suppressor host S26su^+, blr::TnphoA.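 Note: MIC in µg per mL.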
A further assay concerns S26su^+ blr^+. The assay is described as follows: MIC for ampicillin, leuX amber suppressor host S26su^+, blr^+.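 Note: MIC in µg per mL.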 Conditions: plasmid None.
In another assay the test system is ASS11rif (blr^+). The assay is described as follows: MIC for ampicillin, complementation test, wild type host. The following applies: Escherichia coli.
Assay [2] concerns RW583 (ASS111rifblr::TnphoA). The assay is described as follows: MIC for ampicillin, complementation in RW583. The following applies: Escherichia coli.
Assay [3] deals with blr::TnphoA insertion mutant. The assay is described as follows: Decline in optical density of growing cultures. Conditions: insertion mutant versus wild type.
[4] abbreviates: RW58s + pRW23D (blr^+, 358 base pairs).
Setting [5] is: RW583 + pRW23A (blr^+, 680 base pairs).
[6] abbreviates: RW583 + pRW23C (blr^+, 358 base pairs).
[7] abbreviates: strain ASS111rif blr::TnphoA (=RW583), no plasmid.
[8] abbreviates: Blr::TnphoA, pL24tag1 (amber blr).
Where [9] appears, read: Blr::TnphoA, pL39tag3 (amber L39 blr).
Where [10] appears, read: blr::TnphoA, pRW23C (wild type blr).

For `O=C(N[C@H](CO)[C@H](O)c1ccc([N+](=O)[O-])cc1)C(Cl)Cl` [chloramphenicol], the “effect of the insertion on susceptibility” value (shortened to “effect of the insertion”) in the assay with RW583 was “not affected”.

With `CCN1CCN(C(=O)N[C@@H](C(=O)N[C@@H]2C(=O)N3[C@@H]2SC(C)(C)[C@@H]3C(=O)O)c2ccccc2)C(=O)C1=O` [Pipericillin], the “susceptibility (E-test strip)” value in the assay with WY100 was 1.5; in the assay on AW1045 it was 1.0; with WY100 blr::TnphoA, 0.75; in the assay on AW1045 blr::TnphoA, 0.25; in assay [1] (setting [4]), 1.0; in assay [1] (RW583 + pACYC184 (vector)), 0.25. For the same compound, the “susceptibility (E-test strip)” value in [1] (setting [5]) was determined as 1.5; in assay [1] (setting [6]), 1.0; in assay [1] (RW583 + pUC19Sp^R (vector)) it was 1.25; in assay [1] (setting [7]) it was 0.25.

Turning to `C[C@@H](O)[C@H]1C(=O)N2C(C(=O)O)=C(SCCN=CN)C[C@H]12` [Imipene, imipenem], the “susceptibility (E-test strip)” value was determined as 0.25 with WY100; 0.38 in the assay on AW1045; 0.125 in the assay on WY100 blr::TnphoA; 0.125 with AW1045 blr::TnphoA; 0.25 in assay [1] (setting [4]); 0.19 in assay [1] (RW583 + pACYC184 (vector)). The “susceptibility (E-test strip)” value amounted to 0.38 in assay [1] (setting [5]), 0.19 in assay [1] (setting [6]), 0.125 in [1] (RW583 + pUC19Sp^R (vector)) and 0.19 in assay [1] (setting [7]).

Turning to `CO[C@@]1(NC(=O)Cc2cccs2)C(=O)N2C(C(=O)O)=C(COC(N)=O)CS[C@@H]21` [Cefoxitin], the “susceptibility (E-test strip)” value with WY100 amounted to 3; with AW1045 it was 3; with WY100 blr::TnphoA, 1.5; in the assay with AW1045 blr::TnphoA it was 1.5; in [1] (setting [4]), 1.5; in [1] (RW583 + pACYC184 (vector)) it was 0.75. Further, the “susceptibility (E-test strip)” value is recorded as 2 in [1] (setting [5]), 1.5 in assay [1] (setting [6]), 0.75 in assay [1] (RW583 + pUC19Sp^R (vector)) and 1.0 in [1] (setting [7]).

By MIC is commonly meant the least concentration at which growth counts as inhibited. As to `CC1(C)S[C@@H]2[C@H](NC(=O)[C@H](N)c3ccccc3)C(=O)N2[C@H]1C(=O)O` [Ampicillin], the MIC for ampicillin in the assay with S26 blr::TnphoA (setting [8]) stood at 0.9 µg·mL; against S26 blr::TnphoA (setting [9]) it was 0.2 µg·mL; against S26 blr::TnphoA (setting [10]), 2.8 µg·mL; in the assay with S26 blr::TnphoA (blr::TnphoA, pUC19-Sp^R (none)), 0.5 µg·mL; in the assay on S26 blr::TnphoA (blr::TnphoA, plasmid None) it was 0.5 µg·mL; with S26 blr^+, 3.3 µg·mL. Moreover, the MIC for ampicillin turned out to be 2.1 µg·mL with S26su^+ blr::TnphoA (setting [8]); 0.2 µg·mL against S26su^+ blr::TnphoA (setting [9]); 3.0 µg·mL in the assay on S26su^+ blr::TnphoA (setting [10]); 1.1 µg·mL in the assay with S26su^+ blr::TnphoA (blr::TnphoA, pUC19-Sp^R (none)); 1.0 µg·mL with S26su^+ blr::TnphoA (blr::TnphoA, plasmid None); 3.5 µg·mL against S26su^+ blr^+. For the same compound, the “susceptibility (E-test strip)” value turned out to be 3 in the assay on WY100; 3 in the assay with AW1045; 0.75 in the assay on WY100 blr::TnphoA; 0.75 in the assay on AW1045 blr::TnphoA; 2 in assay [1] (setting [4]); 0.5 in assay [1] (RW583 + pACYC184 (vector)). For the same compound, the “susceptibility (E-test strip)” value in [1] (setting [5]) came to 3; in [1] (setting [6]), 2; in assay [1] (RW583 + pUC19Sp^R (vector)), 0.25; in assay [1] (setting [7]), 0.5. For the same compound, the minimal inhibitory concentration (MIC) came out at 1 µg/mL (≈ 2.86 µM) in the assay with ASS11rif (blr^+) (host ASS11rif blr^+, plasmid pRW23C (wild type blr), read-out: MIC for ampicillin); 1.1 µg/mL (≈ 3.15 µM) with ASS11rif (blr^+) (read-out: MIC for ampicillin, host ASS11rif blr^+, plasmid None); 0.13 µg/mL (≈ 0.372 µM) in assay [2] (host RW583, plasmid None); 1.1 µg/mL (≈ 3.15 µM) in [2] (host RW583, plasmid PQ13tag1 (amber Q13 blr)); 1.2 µg/mL (≈ 3.43 µM) in assay [2] (host RW583, plasmid PV20tag1 (amber V20 blr)); 0.13 µg/mL (≈ 0.372 µM) in [2] (host RW583, plasmid pL24tag1 (amber L24 blr)). The MIC in assay [2] (host RW583, plasmid pRW23C (wild type blr)) was found to be 1.1 µg/mL (≈ 3.15 µM); in assay [2] (host RW583, plasmid pUC19-Sp^R (none)) it was 0.09 µg/mL (≈ 0.258 µM). The “restoration of resistance by plasmid” value in the assay on RW583 (blr::TnphoA strain with pRWA7 (no vector-derived promoter for blr)) is “completely restored resistance”. Further, the “drug concentration required for decline in optical density of growing cultures” value in assay [3] is given as “lower drug concentration”.

For `CO/N=C(\C(=O)N[C@@H]1C(=O)N2C(C(=O)[O-])=C(C[N+]3(C)CCCC3)CS[C@H]12)c1csc(N)n1` [Cefepime], the “susceptibility (E-test strip)” value with WY100 is 0.047; in the assay with AW1045, 0.023; with WY100 blr::TnphoA it was under 0.016; with AW1045 blr::TnphoA it was under 0.016; in [1] (setting [4]), 0.023; in [1] (RW583 + pACYC184 (vector)) it was under 0.016. Further, the “susceptibility (E-test strip)” value is given as 0.032 in assay [1] (setting [5]), 0.023 in assay [1] (setting [6]), under 0.016 in [1] (RW583 + pUC19Sp^R (vector)) and under 0.016 in [1] (setting [7]).

Consider `CC(C)[C@@H]1NC(=O)[C@H](C)OC(=O)[C@@H](C(C)C)NC(=O)[C@@H](C(C)C)OC(=O)[C@H](C(C)C)NC(=O)[C@H](C)OC(=O)[C@@H](C(C)C)NC(=O)[C@@H](C(C)C)OC(=O)[C@H](C(C)C)NC(=O)[C@H](C)OC(=O)[C@@H](C(C)C)NC(=O)[C@@H](C(C)C)OC1=O` [valinomycin], for which the “effect of the insertion” value with RW583 is “not affected”.

Turning to `CO/N=C(\C(=O)N[C@@H]1C(=O)N2C(C(=O)O)=C(CSc3nc(=O)c(=O)[nH]n3C)CS[C@H]12)c1csc(N)n1` [Ceftriaxone], the “susceptibility (E-test strip)” value is listed as 0.125 in the assay with WY100; 0.032 with AW1045; 0.32 with WY100 blr::TnphoA; under 0.016 with AW1045 blr::TnphoA; 0.016 in [1] (setting [4]); under 0.016 in assay [1] (RW583 + pACYC184 (vector)). The “susceptibility (E-test strip)” value in assay [1] (setting [5]) was 0.023; in [1] (setting [6]), 0.016; in assay [1] (RW583 + pUC19Sp^R (vector)), under 0.016; in assay [1] (setting [7]), under 0.016.

With gentamicin, the “effect of the insertion” value in the assay with RW583 is listed as “not affected”.

Take `CCn1cc(C(=O)O)c(=O)c2cc(F)c(N3CCNCC3)cc21` [norfloxacin]: the “effect of the insertion” value in the assay with RW583 is given as “not affected”.

In the case of `CCn1cc(C(=O)O)c(=O)c2ccc(C)nc21` [nalidixic acid], in the assay with RW583, the “effect of the insertion” value was “not affected”.

For `C[C@@H]1O[C@@H]1P(=O)(O)O` [fosfomycin], the “effect of the insertion” value in the assay with RW583 is “not affected”.

The values above are taken from patent US20020051982A1, “Novel BLR molecules affecting antibiotic susceptibility” (priority 2000, published 2002).
